Experimental data: patent US20230083012A1, “DIHYDROPYRIMIDINE DERIVATIVES AND USES THEREOF IN THE TREATMENT OF HBV INFECTION OR OF HBV-INDUCED DISEASES” (priority 2019, published 2023)

Key:
[1] = Cytotoxicity determination in HepG2.2.15 cells (CCK-8 cell viability); format: cell-based; conditions: human, 6 days treatment, CCK-8 assay, highest concentration 100 uM
In short: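 Viability measured by CCK-8 absorbance (450 nm, 630 nm reference, 2.5 h at 37° C) after six days of treatment, medium and compound renewed on day 3. Top concentration 100 uM, eight threefold dilutions in triplicate; cells plated at 5,000/well in 2% FBS medium; CC50 derived.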

HBV = assay: Anti-HBV activity in HepG2.2.15 cells (HBV DNA in culture medium by qPCR); format: cell-based; conditions: Hepatitis B virus, HepG2.2.15, 144 h, HepG2.2.15 cells, 6 days treatment, HBV DNA in culture medium quantified by real-time PCR; read-out: EC50
In short: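 Secreted HBV DNA was measured by real-time PCR after 6-day compound exposure of HepG2.2.15 cells (2% FBS, 37 °C, re-dosed after 3 days), giving EC50 from 8-point 1:3 series starting at 10 or 1 uM. Cytotoxicity (CC50) run separately at lower cell density, top 100 uM.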

SMILES | CC50 at 6 days [1] | EC50 (HBV)
CCOC(=O)C1=C(CN2CC(F)(F)[C@@H]3[C@H]2CON3CCC(C)(C)C(=O)O)NC(c2nccs2)=N[C@H]1c1ccc(F)cc1Cl (single isomer, unassigned) [Compound 169, 4-((cis)-4-((6-(2-chloro-4-fluorophenyl)-5-(ethoxycarbonyl)-2-(thiazol-2-yl)-3,6-dihydropyrimidin-4-yl)methyl)-6,6-difluorohexahydro-1H-pyrrolo[3,2-c]isoxazol-1-yl)-2,2-dimethylbutanoic acid] | > 50000 nM | 5 nM
COC(=O)C1=C(CN2CC(F)(F)[C@@H]3[C@H]2CON3CCC(C)(C)C(=O)O)NC(c2nccs2)=N[C@H]1c1cccc(F)c1Cl (single isomer, unassigned) [Compound 170, (cis)-4-(4-((6-(2-chloro-3-fluorophenyl)-5-(methoxycarbonyl)-2-(thiazol-2-yl)-3,6-dihydropyrimidin-4-yl)methyl)-6,6-difluorohexahydro-1H-pyrrolo[3,2-c]isoxazol-1-yl)-2,2-dimethylbutanoic acid] | > 25000 nM | 8 nM
CCOC(=O)C1=C(CN2CC(F)(F)[C@@H]3[C@H]2CON3CCC(C)(C)C(=O)O)NC(c2nccs2)=NC1c1cccc(F)c1Cl (single isomer, unassigned) [Compound 171, (cis)-4-(4-((6-(2-chloro-3-fluorophenyl)-5-(ethoxycarbonyl)-2-(thiazol-2-yl)-3,6-dihydropyrimidin-4-yl)methyl)-6,6-difluorohexahydro-1H-pyrrolo[3,2-c]isoxazol-1-yl)-2,2-dimethylbutanoic acid] | 32300 nM | 4 nM
CCOC(=O)C1=C(CN2CC(F)(F)[C@@H]3[C@H]2CON3CC(C)(C)C(=O)O)NC(c2nccs2)=N[C@@H]1c1ccc(F)nc1C (single isomer, unassigned) [Compound 172, 3-((cis)-4-((5-(Ethoxycarbonyl)-6-(6-fluoro-2-methylpyridin-3-yl)-2-(thiazol-2-yl)-3,6-dihydropyrimidin-4-yl)methyl)-6,6-difluorohexahydro-1H-pyrrolo[3,2-c]isoxazol-1-yl)-2,2-dimethylpropanoic acid] | > 100000 nM | 33 nM
CCOC(=O)C1=C(CN2CC(F)(F)[C@@H]3[C@H]2CON3CCC(C)(C)C(=O)O)NC(c2nccs2)=N[C@H]1c1cccc(F)c1F (single isomer, unassigned) [Compound 173, 4-((cis)-4-((6-(2,3-difluorophenyl)-5-(ethoxycarbonyl)-2-(thiazol-2-yl)-3,6-dihydropyrimidin-4-yl)methyl)-6,6-difluorohexahydro-1H-pyrrolo[3,2-c]isoxazol-1-yl)-2,2-dimethylbutanoic acid] | > 100000 nM | 16 nM
CCOC(=O)C1=C(CN2CC(F)(F)[C@@H]3[C@H]2CON3CCC(C)(C)C(=O)O)NC(c2nc(C)cs2)=N[C@H]1c1ccc(F)c(F)c1F (single isomer, unassigned) [Compound 174, 4-((cis)-4-((5-(ethoxycarbonyl)-2-(4-methylthiazol-2-yl)-6-(2,3,4-trifluorophenyl)-3,6-dihydropyrimidin-4-yl)methyl)-6,6-difluorohexahydro-1H-pyrrolo[3,2-c]isoxazol-1-yl)-2,2-dimethylbutanoic acid] | > 50000 nM | 15 nM
CCOC(=O)C1=C(CN2CC(F)(F)[C@@H]3[C@H]2CON3CCC(C)(C)C(=O)O)NC(c2nccs2)=N[C@H]1c1ccc(F)c(F)c1F (single isomer, unassigned) [Compound 175, 4-((cis)-4-((5-(Ethoxycarbonyl)-2-(thiazol-2-yl)-6-(2,3,4-trifluorophenyl)-3,6-dihydropyrimidin-4-yl)methyl)-6,6-difluorohexahydro-1H-pyrrolo[3,2-c]isoxazol-1-yl)-2,2-dimethylbutanoic acid] | > 50000 nM | 8 nM
CCOC(=O)C1=C(CN2CC(F)(F)[C@@H]3[C@H]2CON3CC(C)(C)C(=O)O)NC(c2nccs2)=N[C@H]1c1cccc(F)c1C (single isomer, unassigned) [Compound 176] | 24800 nM | 3 nM
CCOC(=O)C1=C(CN2C[C@H](F)[C@H]3[C@@H]2CON3CCC(C)(C)C(=O)O)NC(c2nccs2)=N[C@H]1c1cccc(F)c1C (single isomer, unassigned) [Compound 177] | 24000 nM | 15 nM
CCOC(=O)C1=C(CN2CC(F)(F)[C@@H]3[C@H]2CON3C[C@@H](CC)C(=O)O)NC(c2nccs2)=N[C@H]1c1cccc(F)c1C (single isomer, unassigned) [Compound 178A] | > 50000 nM | 3.5 nM
CCOC(=O)C1=C(CN2CC(F)(F)[C@@H]3[C@H]2CON3C[C@H](CC)C(=O)O)NC(c2nccs2)=N[C@H]1c1cccc(F)c1C (single isomer, unassigned) [Compound 178B] | > 50000 nM | 12 nM
CCOC(=O)C1=C(CN2CC(F)(F)[C@@H]3CNC[C@@H]32)NC(c2nccs2)=N[C@H]1c1cccc(F)c1C (single isomer, unassigned) [Compound 179] | > 3100 nM | 50 nM
CCOC(=O)C1=C(CN2CC(F)(F)[C@@H]3C(=O)N([C@@H](C)C(=O)O)C[C@@H]32)NC(c2nccs2)=N[C@H]1c1cccc(F)c1C (single isomer, unassigned) [Compound 180] | > 100000 nM | 92.6 nM
CCOC(=O)C1=C(CN2CC(F)(F)[C@@H]3C(=O)N(C[C@@H](C)C(=O)O)C[C@@H]32)NC(c2nccs2)=N[C@H]1c1cccc(F)c1C (single isomer, unassigned) [Compound 181A] | 52900 nM | 12.3 nM
CCOC(=O)C1=C(CN2CC(F)(F)C3C(=O)N(C[C@H](C)C(=O)O)C[C@@H]32)NC(c2nccs2)=N[C@H]1c1cccc(F)c1C (single isomer, unassigned) [Compound 181B] | 69900 nM | 9.5 nM
CCOC(=O)C1=C(CN2CC(F)(F)C3C(=O)N(C[C@@H](CC)C(=O)O)C[C@@H]32)NC(c2nccs2)=N[C@H]1c1cccc(F)c1C (single isomer, unassigned) [Compound 182A] | 49600 nM | 23.9 nM
CCOC(=O)C1=C(CN2CC(F)(F)[C@@H]3C(=O)N(C[C@H](CC)C(=O)O)C[C@@H]32)NC(c2nccs2)=N[C@H]1c1cccc(F)c1C (single isomer, unassigned) [Compound 182B] | 33300 nM | 11.3 nM
CCOC(=O)C1=C(CN2CC(F)(F)[C@@H]3CN(C[C@@H](CC)C(=O)O)C(=O)C32)NC(c2nccs2)=N[C@H]1c1cccc(F)c1C (single isomer, unassigned) [Compound 183A] | 40300 nM | 14.3 nM
CCOC(=O)C1=C(CN2CC(F)(F)[C@@H]3CN(C[C@H](CC)C(=O)O)C(=O)[C@@H]32)NC(c2nccs2)=N[C@H]1c1cccc(F)c1C (single isomer, unassigned) [Compound 183B] | 50200 nM | 6.4 nM
CCOC(=O)C1=C(CN2CC(F)(F)[C@@H]3C(=O)N(CC4(C(=O)O)CC4)C[C@@H]32)NC(c2nccs2)=N[C@H]1c1cccc(F)c1C (single isomer, unassigned) [Compound 184] | 48300 nM | 6.7 nM
CCOC(=O)C1=C(CN2CC(F)(F)[C@@H]3CN([C@H]4CC[C@@H](C(=O)O)CC4)C(=O)[C@@H]32)NC(c2nccs2)=N[C@H]1c1cccc(F)c1C (single isomer, unassigned) [Compound 185A] | 48300 nM | 5.4 nM
CCOC(=O)C1=C(CN2CC(F)(F)[C@@H]3CN([C@H]4CC[C@H](C(=O)O)CC4)C(=O)[C@@H]32)NC(c2nccs2)=N[C@H]1c1cccc(F)c1C (single isomer, unassigned) [Compound 185B] | 27600 nM | 8.3 nM
CCOC(=O)C1=C(CN2CC(F)(F)[C@@H]3C(=O)N(c4ccn(CCC(C)(C)C(=O)O)n4)C[C@@H]32)NC(c2nccs2)=N[C@H]1c1cccc(F)c1C (single isomer, unassigned) [Compound 187] | 33600 nM | 81.7 nM
CCOC(=O)C1=C(CN2CC(F)(F)[C@@H]3C(=O)N(C(=O)NCC(C)(C)C(=O)O)C[C@@H]32)NC(c2nccs2)=N[C@H]1c1cccc(F)c1C (single isomer, unassigned) [Compound 188] | 32100 nM | 62.4 nM
CCOC(=O)C1=C(CN2CC(F)(F)[C@@H]3CN(C(=O)NCC(C)(C)C(=O)O)C(=O)[C@@H]32)NC(c2nccs2)=N[C@H]1c1cccc(F)c1C (single isomer, unassigned) [Compound 189] | 28200 nM | 18.1 nM
CCOC(=O)C1=C(CN2CC(F)(F)C3C(=O)N(C(=O)CC(C)(C)C(=O)O)C[C@@H]32)NC(c2nccs2)=N[C@H]1c1cccc(F)c1C (single isomer, unassigned) [Compound 190] | 28700 nM | 4.3 nM
CCOC(=O)C1=C(CN2CC(F)(F)[C@@H]3CN(C(=O)CC(C)(C)C(=O)O)C(=O)[C@@H]32)NC(c2nccs2)=N[C@H]1c1cccc(F)c1C (single isomer, unassigned) [Compound 191] | 35900 nM | 13.5 nM
CCOC(=O)C1=C(CN2CC(F)(F)[C@@H]3CN([C@H]4C[C@@H](C(=O)O)C4)C(=O)[C@@H]32)NC(c2nccs2)=N[C@H]1c1cccc(F)c1C (single isomer, unassigned) [Compound 192] | 52900 nM | 16.6 nM
CCOC(=O)C1=C(CN2CC(F)(F)[C@@H]3C(=O)N(CCC(C)(C)C(=O)O)C[C@@H]32)NC(c2nccs2)=N[C@H]1c1cccc(F)c1C (single isomer, unassigned) [Compound 193] | 48200 nM | 12.1 nM
